Where two headings read alike, the source gives them in different places.
Experiments:
Type in all cases: cell-based
[1] = system: IL3000 T. congolense (drug sensitive) strain; assay: In vitro Alamar Blue 72 hrs drug sensitivity assay for T. congolense; settings: Trypanosoma congolense, IL3000 T. congolense bloodstream form, read-out: T. congo Act.
Summary of the method: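 Bloodstream-form IL3000 trypanosomes in HMI medium with 20% bovine serum were exposed to compound for 69 hrs at 34° C, 5% CO2. Resazurin was then added for 3 hrs and fluorescence read (ex 536/em 588 nm). IC50 came from 11-point sigmoidal curves over at least three independent runs.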

[2] = system: STIB 719/ILRAD 560 T. vivax (drug sensitive) strain; assay: Ex vivo Alamar Blue 48 hrs drug sensitivity assay for T. vivax; settings: Trypanosoma vivax, read-out: T. vivax Act.
Summary of the method: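 Bloodstream-form trypanosomes taken from a parasitaemic mouse were exposed to compound for 45 h at 37°C, 5% CO2 in HMI medium with 20% bovine serum. Resazurin added for a further 3 h, fluorescence read at ex 536/em 588 nm. IC50 from 11-point sigmoidal curves, at least three independent runs.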

[3] = system: STIB 806 K T. evansi (drug sensitive) strain; assay: In vitro Alamar Blue 72 hrs drug sensitivity assay for T. evansi; settings: read-out: T. evansi Act.
Description: In vitro Alamar Blue 72 hrs drug sensitivity assay for T. evansi. Compounds were tested in vitro for chemotherapeutic efficacy against the STIB 806 K T. evansi (drug sensitive) strain, using an Alamar Blue assay. Test compounds were prepared as 10 mg/mL DMSO stocks for each assay run. Compounds were assayed in at least three separate, independent test runs and an 11-point dilution curve was used to determine the IC50 values. Bloodstream form trypanosomes were incubated with test compounds for 69 hrs at 37° C. in a humidified atmosphere containing 5% CO2, supported in HMI media containing 15% horse serum. Thereafter, 10 μL of Resazurin dye (12.5 mg in 100 mL of phosphate buffered saline, Sigma-Aldrich, Buchs, Switzerland) were added for an additional 3 hrs. Plates were then read using a fluorescent plate reader (Spectramax, Gemini XS, Bucher Biotec, Basel, Switzerland) using an excitation wavelength of 536 nm and an emission wavelength of 588 nm. Data points were averaged to generate sigmoidal dose-response curves and IC50 values were determined using Softmax Pro 5.2 software.

[4] = STIB719, STIB 719/ILRAD 560 T. vivax bloodstream form, ex vivo, Alamar Blue, 48 hrs
[5] = STIB 806 K T. evansi bloodstream form, Alamar Blue, 72 hrs

SMILES | IC50 [1] [nM] | IC50 ([2]; STIB719, 48 h) [nM] | IC50 ([3]; 72 h) [nM] | IC50 [2, 4] [nM] | IC50 [3, 5] [nM]
CC1(Nc2ncc3nc(Nc4cccc(Cl)c4)n(C4CCC(CN)CC4)c3n2)CCCC1 (stereo not drawn) [A-4, 9-((1s,4s)-4-(aminomethyl)cyclohexyl)-N8-(3-chlorophenyl)-N2-(1-methylcyclopentyl)-9H-purine-2,8-diamine] | < 150 | < 150 | < 150 |  | 
CN(C)C[C@H]1CC[C@@H](n2c(Nc3cccc(Cl)c3)nc3cnc(NC4(C)CCOCC4)nc32)CC1 [A-5, N8-(3-chlorophenyl)-9-((1s,4s)-4-((dimethylamino)methyl)cyclohexyl)-N2-(4-methyltetrahydro-2H-pyran-4-yl)-9H-purine-2,8-diamine] | < 150 |  |  | < 150 | < 150
CC1(Nc2ncc3nc(Nc4cccc(Cl)c4)n([C@H]4CC[C@H](CN)CC4)c3n2)CCOCC1 [A-7, 9-((1r,4r)-4-(aminomethyl)cyclohexyl)-N8-(3-chlorophenyl)-N2-(4-methyltetrahydro-2H-pyran-4-yl)-9H-purine-2,8-diamine] | < 150 |  |  | < 150 | < 150
CC(=O)NC[C@H]1CC[C@@H](n2c(Nc3cccc(Cl)c3)nc3cnc(NC4(C)CCOCC4)nc32)CC1 [A-11, N-(((1s,4s)-4-(8-(3-chlorophenylamino)-2-(4-methyltetrahydro-2H-pyran-4-ylamino)-9H-purin-9-yl)cyclohexyl)methyl)acetamide] | 350 to 500 |  |  | < 150 | 350 to 500
CCC(C)(C)Nc1ncc2nc(Nc3cccc(C(F)(F)F)c3)n([C@H]3CC[C@@H](CN)CC3)c2n1 [A-13, 9-((1s,4s)-4-(aminomethyl)cyclohexyl)-N2-tert-pentyl-N8-(3-(trifluoromethyl)phenyl)-9H-purine-2,8-diamine] | < 150 |  |  | < 150 | < 150
CC1(Nc2ncc3nc(Nc4cccc(C(F)(F)F)c4)n([C@H]4CC[C@@H](CN)CC4)c3n2)CCOCC1 [A-28, 9-((1s,4s)-4-(aminomethyl)cyclohexyl)-N2-(4-methyltetrahydro-2H-pyran-4-yl)-N8-(3-(trifluoromethyl)phenyl)-9H-purine-2,8-diamine] | < 150 |  |  | < 150 | < 150
CC1(Nc2ncc3nc(Nc4ccnc(C(F)(F)F)c4)n([C@H]4CC[C@@H](CN)CC4)c3n2)CCOCC1 [A-34, 9-((1s,4s)-4-(aminomethyl)cyclohexyl)-N2-(4-methyltetrahydro-2H-pyran-4-yl)-N8-(2-(trifluoromethyl)pyridin-4-yl)-9H-purine-2,8-diamine] | < 150 |  |  | < 150 | < 150
CC1(Nc2ncc3nc(Nc4cc(Cl)cc(C(F)(F)F)c4)n([C@H]4CC[C@@H](CN)CC4)c3n2)CCOCC1 [A-36, 9-((1s,4s)-4-(aminomethyl)cyclohexyl)-N8-(3-chloro-5-(trifluoromethyl)phenyl)-N2-(4-methyltetrahydro-2H-pyran-4-yl)-9H-purine-2,8-diamine] | < 150 |  |  | < 150 | 150 to 350
CC1(Nc2ncc3nc(Nc4cccc(OC(F)(F)F)c4)n([C@H]4CC[C@@H](CN)CC4)c3n2)CCOCC1 [A-37, 9-((1s,4s)-4-(aminomethyl)cyclohexyl)-N2-(4-methyltetrahydro-2H-pyran-4-yl)-N8-(3-(trifluoromethoxy)phenyl)-9H-purine-2,8-diamine] | < 150 |  |  | < 150 | < 150
CC1(Nc2ncc3nc(Nc4ccc(OC(F)(F)F)cc4)n([C@H]4CC[C@@H](CN)CC4)c3n2)CCOCC1 [A-38, 9-((1s,4s)-4-(aminomethyl)cyclohexyl)-N2-(4-methyltetrahydro-2H-pyran-4-yl)-N8-(4-(trifluoromethoxy)phenyl)-9H-purine-2,8-diamine] | < 150 |  |  | < 150 | 150 to 350
CC1(Nc2ncc3nc(Nc4cccc(Cl)c4)n([C@H]4CC[C@@H](CN5CCCCC5)CC4)c3n2)CCOCC1 [A-40, N8-(3-chlorophenyl)-N2-(4-methyltetrahydro-2H-pyran-4-yl)-9-((1s,4s)-4-(piperidin-1-ylmethyl)cyclohexyl)-9H-purine-2,8-diamine] | < 150 |  |  | < 150 | < 150
CC1(Nc2ncc3nc(Nc4cc(Cl)cc(Cl)c4)n([C@H]4CC[C@@H](CN)CC4)c3n2)CCOCC1 [A-43, 9-((1s,4s)-4-(aminomethyl)cyclohexyl)-N8-(3,5-dichlorophenyl)-N2-(4-methyltetrahydro-2H-pyran-4-yl)-9H-purine-2,8-diamine] | < 150 |  |  | < 150 | < 150
CC1(Nc2ncc3nc(Nc4cc(F)cc(F)c4)n([C@H]4CC[C@@H](CN)CC4)c3n2)CCOCC1 [A-44, 9-((1s,4s)-4-(aminomethyl)cyclohexyl)-N8-(3,5-difluorophenyl)-N2-(4-methyltetrahydro-2H-pyran-4-yl)-9H-purine-2,8-diamine] | < 150 |  |  | < 150 | < 150
CC1(Nc2ncc3nc(Nc4cccc(C(F)(F)F)c4F)n([C@H]4CC[C@@H](CN)CC4)c3n2)CCOCC1 [A-46, 9-((1s,4s)-4-(aminomethyl)cyclohexyl)-N8-(2-fluoro-3-(trifluoromethyl)phenyl)-N2-(4-methyltetrahydro-2H-pyran-4-yl)-9H-purine-2,8-diamine] | < 150 |  |  | < 150 | < 150
CC1(Nc2ncc3nc(Nc4cc(F)cc(Cl)c4)n([C@H]4CC[C@@H](CN)CC4)c3n2)CCOCC1 [A-47, 9-((1s,4s)-4-(aminomethyl)cyclohexyl)-N8-(3-chloro-5-fluorophenyl)-N2-(4-methyltetrahydro-2H-pyran-4-yl)-9H-purine-2,8-diamine] | < 150 |  |  | < 150 | < 150
CC1(Nc2ncc3nc(Nc4cccc(Cl)c4F)n([C@H]4CC[C@@H](CN)CC4)c3n2)CCOCC1 [A-49, 9-((1s,4s)-4-(aminomethyl)cyclohexyl)-N8-(3-chloro-2-fluorophenyl)-N2-(4-methyltetrahydro-2H-pyran-4-yl)-9H-purine-2,8-diamine] | < 150 |  |  | < 150 | < 150

Reference: patent US10420772B2, “Animal and human anti-trypanosomonal and anti-leishmania agents” (Celgene Corporation, priority 2016, dated 2019)
